From patent publication US20260022143A1, “Cyclic Peptide Inhibitors of IL-23” (JANSSEN PHARMACEUTICA NV, priority 2022, published 2026)
Starred links: 1 amine or outer side, 2 acyl side, 3 side chain; linkers in the order of their positions; H or OH if unused. Positions of bridges follow the written chain, without caps; N, C: chain ends. Non-standard residues stand in square brackets, D forms with d. Residues, ends and D or L forms follow the SMILES beside them. Groups on a side chain read outwards from the residue. *: point of attachment. X46 = CCCCCCCCCCCC(=O)N[C@@H](CCC(=O)NCCOCCOCC(=O)NCCOCCOCC(=O)NCCCC[C@H](NC(=O)COCCOCCNC(=O)COCCOCCNC(=O)CC[C@H](NC(=O)CCCCCCCCCCC)C(=O)O)C(=O)*)C(=O)O; Me3N+(CH2)2O(CH2)2O(CH2)2CO = C[N+](C)(C)CCOCCOCCC(=O)*; Trp(7-Me) = Cc1cccc2c(C[C@H](N)C(=O)O)c[nH]c12; γGlu = O=C(O)[C@H](CCC(=O)[*:2])N[*:1]; 2Nal = N[C@@H](Cc1ccc2ccccc2c1)C(=O)O; 3Pal = N[C@@H](Cc1cccnc1)C(=O)O; Lys(Me) = CNCCCC[C@H](N)C(=O)O; NMeK = CN[C@@H](CCCCN)C(=O)O; Pen = CC(C)(S)[C@H](N)C(=O)O; Lauroyl = CCCCCCCCCCCC(=O)*; X11 = N=C(N)NCCOCCOCCC(=O)*; X31 = N=C(N)NCCOCCC(=O)*; Thp = NC1(C(=O)O)CCOCC1; X3 = C[N+](C)(C)CCCCC*; AEEA = NCCOCCOCC(=O)O; Sar = CNCC(=O)O

Assays:
IL-23R = target: T1, IL-23R (Homo sapiens, UniProt Q5VWK5); assay: IL23R Reporter Assay; assay type: cell-based; details: HEK293 cells containing IL-23R, IL-12RP1 and STAT-inducible firefly luciferase reporter; 10 ng/mL IL-23 (EC90); 5 h at 37° C.; read-out: IL23R Reporter Assay
T1 construct: host or cells: HEK293
T1 sequence (Q5VWK5 24-629): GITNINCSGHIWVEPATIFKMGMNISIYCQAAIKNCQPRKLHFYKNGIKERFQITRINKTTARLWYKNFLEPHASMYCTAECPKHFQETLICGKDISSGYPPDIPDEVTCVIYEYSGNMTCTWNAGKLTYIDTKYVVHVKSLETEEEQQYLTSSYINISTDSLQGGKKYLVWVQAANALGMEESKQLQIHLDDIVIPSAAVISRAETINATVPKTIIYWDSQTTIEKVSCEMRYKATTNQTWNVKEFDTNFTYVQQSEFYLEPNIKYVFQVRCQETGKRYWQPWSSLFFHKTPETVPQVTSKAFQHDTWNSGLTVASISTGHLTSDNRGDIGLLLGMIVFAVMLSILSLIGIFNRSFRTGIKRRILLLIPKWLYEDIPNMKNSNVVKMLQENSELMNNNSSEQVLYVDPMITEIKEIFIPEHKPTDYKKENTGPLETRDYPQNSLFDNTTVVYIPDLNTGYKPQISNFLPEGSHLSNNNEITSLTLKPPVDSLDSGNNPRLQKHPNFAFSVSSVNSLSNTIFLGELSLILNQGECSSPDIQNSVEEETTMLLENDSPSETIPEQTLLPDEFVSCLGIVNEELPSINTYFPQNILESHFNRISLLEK

[1] = Exposed Polar Surface Area (EPSA); assay type: physicochemical; details: SFC on Chirex 3014 column; sample 1 mM DMSO stock; read-out: EPSA
Procedure, shortened: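 SFC retention on a Chirex 3014 (S)-valine/(R)-1-(α-naphthyl)ethylamine column, 35 °C, CO2 with MeOH (20 mM ammonium formate) gradient 5–60% at 20%/min, 14 MPa outlet. Retention times converted to EPSA (Å^2) via linear calibration with 8 standards; samples from 1 mM DMSO stock, run in duplicate.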

Row | Structure (SMILES) | IC50 (IL-23R) | EPSA [1]
1 | CCCCCCCCCCCC(=O)N[C@@H](CCC(=O)NCCOCCOCC(=O)NCCOCCOCC(=O)NCCCC[C@H](NC(=O)COCCOCCNC(=O)COCCOCCNC(=O)CC[C@H](NC(=O)CCCCCCCCCCC)C(=O)O)C(=O)NCCOCCOCC(=O)NCCOCCOCC(=O)NCCCC[C@@H](C(N)=O)N(C)C(=O)[C@H](Cc1cccnc1)NC(=O)[C@H](CC(N)=O)NC(=O)[C@H](CCCCN(C)C(C)=O)NC(=O)C1(NC(=O)[C@H](Cc2ccc3ccccc3c2)NC(=O)[C@H](Cc2ccc(OCCCCC[N+](C)(C)C)cc2)NC(=O)[C@H]2NC(=O)[C@H](CCCCNC(C)=O)NC(=O)[C@H](Cc3c[nH]c4c(C)cccc34)NC(=O)[C@H]([C@@H](C)O)NC(=O)[C@H](CC(=O)N(C)C)NC(=O)[C@@H](NC(=O)CCOCCOCC[N+](C)(C)C)C(C)(C)SSC2(C)C)CCOCC1)C(=O)O [compound 372, cPEG3aCO-Pen(3)-N(N(Me)2)-T-7MeW-K(Ac)-Pen(3)-TMAPF-2Nal-THP-K(NMeac)-N-3Pya-NMeK(PEG2PEG2K(PEG2PEG2gEC12)2)-CONH2] ({Me3N+(CH2)2O(CH2)2O(CH2)2CO}-[Pen]D(NMe2)T[Trp(7-Me)]K(Ac)[Pen]Y(X3)[2Nal][Thp][Lys(Me)](Ac)N[3Pal][NMeK]([AEEA-AEEA-X46])-NH2; disulfide 1-6) | 20 nM | 203 A^2
2 | CC(=O)N(C)CCCC[C@H](NC(=O)C1(NC(=O)[C@H](Cc2ccc3ccccc3c2)NC(=O)[C@H](Cc2ccc(OCCCCC[N+](C)(C)C)cc2)NC(=O)[C@H]2NC(=O)[C@H](CCCCNC(=O)CCOCCOCC[N+](C)(C)C)NC(=O)[C@H](Cc3c[nH]c4c(C)cccc34)NC(=O)[C@H]([C@@H](C)O)NC(=O)[C@H](CC(=O)N(C)C)NC(=O)[C@@H](NC(=O)CCOCCOCC[N+](C)(C)C)C(C)(C)SSC2(C)C)CCOCC1)C(=O)N[C@@H](CC(N)=O)C(=O)N[C@@H](Cc1cccnc1)C(=O)N(C)CC(=O)N(C)C [compound 384, cPEG3aCO-Pen(3)-N(N(Me)2)-T-7MeW-K(cPEG3a)-Pen(3)-TMAPF-2Nal-THP-K(NMeAc)-N-3Pya-Sar-CON(Me)2] ({Me3N+(CH2)2O(CH2)2O(CH2)2CO}-[Pen]D(NMe2)T[Trp(7-Me)]K(Me3N+(CH2)2O(CH2)2O(CH2)2CO)[Pen]Y(X3)[2Nal][Thp][Lys(Me)](Ac)N[3Pal][Sar]-NMe2; disulfide 1-6) | 1.4 nM | 157 A^2
3 | CCCCCCCCCCCC(=O)N[C@@H](CCC(=O)NCCOCCOCC(=O)NCCOCCOCC(=O)NCCCC[C@@H]1NC(=O)[C@H](Cc2c[nH]c3c(C)cccc23)NC(=O)[C@H]([C@@H](C)O)NC(=O)[C@H](CCCCNC(=O)COCCOCCNC(=O)COCCOCCNC(=O)CC[C@H](NC(=O)CCCCCCCCCCC)C(=O)O)NC(=O)[C@@H](NC(=O)CCOCCOCC[N+](C)(C)C)C(C)(C)SSC(C)(C)[C@@H](C(=O)N[C@@H](Cc2ccc(OCCCCC[N+](C)(C)C)cc2)C(=O)N[C@@H](Cc2ccc3ccccc3c2)C(=O)NC2(C(=O)N[C@@H](CCCCN(C)C(C)=O)C(=O)N[C@@H](CC(N)=O)C(=O)N[C@@H](Cc3cccnc3)C(=O)N(C)CC(=O)N(C)C)CCOCC2)NC1=O)C(=O)O [compound 389, cPEG3aCO-Pen(3)-K(PEG2PEG2gEC12)-T-7MeW-K(PEG2PEG2gEC12)-Pen(3)-TMAPF-2Nal-THP-K(NMeAc)-N-3Pya-Sar-CON(Me)2] ({Me3N+(CH2)2O(CH2)2O(CH2)2CO}-[Pen]K([AEEA-AEEA-γGlu-Lauroyl])T[Trp(7-Me)]K([AEEA-AEEA-γGlu-Lauroyl])[Pen]Y(X3)[2Nal][Thp][Lys(Me)](Ac)N[3Pal][Sar]-NMe2; disulfide 1-6) | 390 nM | 185 A^2
4 | CC(=O)N(C)CCCC[C@@H]1NC(=O)[C@H](Cc2c[nH]c3c(C)cccc23)NC(=O)[C@H]([C@@H](C)O)NC(=O)[C@H](CC(=O)N(C)C)NC(=O)[C@@H](NC(=O)CCOCCNC(=N)N)C(C)(C)SSC(C)(C)[C@@H](C(=O)N[C@@H](Cc2ccc(OCCCCC[N+](C)(C)C)cc2)C(=O)N[C@@H](Cc2ccc3ccccc3c2)C(=O)NC2(C(=O)N[C@@H](CCCCN(C)C(C)=O)C(=O)N[C@@H](CC(N)=O)C(=O)N[C@@H](Cc3cccnc3)C(=O)N(C)CC(=O)N(C)C)CCOCC2)NC1=O [compound 390, cPEG2gCO-Pen(3)-N(N(Me)2)-T-7MeW-K(NMeAc)-Pen(3)-TMAPF-2Nal-THP-K(NMeAc)-N-3Pya-Sar-CON(Me)2] (X31-[Pen]D(NMe2)T[Trp(7-Me)][Lys(Me)](Ac)[Pen]Y(X3)[2Nal][Thp][Lys(Me)](Ac)N[3Pal][Sar]-NMe2; disulfide 1-6) | 1.2 nM | 148 A^2
5 | CC(=O)N(C)CCCC[C@@H]1NC(=O)[C@H](Cc2c[nH]c3c(C)cccc23)NC(=O)[C@H]([C@@H](C)O)NC(=O)[C@H](CC(=O)N(C)C)NC(=O)[C@@H](NC(=O)CCOCCOCCNC(=N)N)C(C)(C)SSC(C)(C)[C@@H](C(=O)N[C@@H](Cc2ccc(OCCCCC[N+](C)(C)C)cc2)C(=O)N[C@@H](Cc2ccc3ccccc3c2)C(=O)NC2(C(=O)N[C@@H](CCCCN(C)C(C)=O)C(=O)N[C@@H](CC(N)=O)C(=O)N[C@@H](Cc3cccnc3)C(=O)N(C)CC(=O)N(C)C)CCOCC2)NC1=O [compound 391, cPEG3gCO-Pen(3)-N(N(Me)2)-T-7MeW-K(NMeAc)-Pen(3)-TMAPF-2Nal-THP-K(NMeAc)-N-3Pya-Sar-CON(Me)2] (X11-[Pen]D(NMe2)T[Trp(7-Me)][Lys(Me)](Ac)[Pen]Y(X3)[2Nal][Thp][Lys(Me)](Ac)N[3Pal][Sar]-NMe2; disulfide 1-6) | 1.5 nM | 158 A^2
6 | CCCCCCCCCCCC(=O)N[C@@H](CCC(=O)NCCOCCOCC(=O)NCCOCCOCC(=O)NCCCC[C@@H]1NC(=O)[C@H](Cc2c[nH]c3c(C)cccc23)NC(=O)[C@H]([C@@H](C)O)NC(=O)[C@H](CC(=O)N(C)C)NC(=O)[C@@H](NC(=O)CCOCCOCC[N+](C)(C)C)C(C)(C)SSC(C)(C)[C@@H](C(=O)N[C@@H](Cc2ccc(OCCCCC[N+](C)(C)C)cc2)C(=O)N[C@@H](Cc2ccc3ccccc3c2)C(=O)NC2(C(=O)N[C@@H](CCCCNC(=O)COCCOCCNC(=O)COCCOCCNC(=O)CC[C@H](NC(=O)CCCCCCCCCCC)C(=O)O)C(=O)N[C@@H](CC(N)=O)C(=O)N[C@@H](Cc3cccnc3)C(=O)N(C)CC(=O)N(C)C)CCOCC2)NC1=O)C(=O)O [compound 400, cPEG3aCO-Pen(3)-N(N(Me)2)-T-7MeW-K(PEG2PEG2gEC12)-Pen(3)-TMAPF-2Nal-THP-K(PEG2PEG2gEC12)-N-3Pya-Sar-CON(Me)2] ({Me3N+(CH2)2O(CH2)2O(CH2)2CO}-[Pen]D(NMe2)T[Trp(7-Me)]K([AEEA-AEEA-γGlu-Lauroyl])[Pen]Y(X3)[2Nal][Thp]K([AEEA-AEEA-γGlu-Lauroyl])N[3Pal][Sar]-NMe2; disulfide 1-6) | 290 nM | 173 A^2
7 | CCCCCCCCCCCC(=O)N[C@@H](CCC(=O)NCCOCCOCC(=O)NCCOCCOCC(=O)NCCCC[C@H](NC(=O)C1(NC(=O)[C@H](Cc2ccc3ccccc3c2)NC(=O)[C@H](Cc2ccc(OCCCCC[N+](C)(C)C)cc2)NC(=O)[C@H]2NC(=O)[C@H](CCCCN(C)C(C)=O)NC(=O)[C@H](Cc3c[nH]c4c(C)cccc34)NC(=O)[C@H]([C@@H](C)O)NC(=O)[C@H](CC(=O)N(C)C)NC(=O)[C@@H](NC(=O)CCOCCOCC[N+](C)(C)C)C(C)(C)SSC2(C)C)CCOCC1)C(=O)N[C@@H](CC(N)=O)C(=O)N[C@@H](Cc1cccnc1)C(=O)N(C)CC(=O)N(C)C)C(=O)O [compound 401, cPEG3aCO-Pen(3)-N(N(Me)2)-T-7MeW-K(NMeAc)-Pen(3)-TMAPF-2Nal-THP-K(PEG2PEG2gEC12)-N-3Pya-Sar-CON(Me)2] ({Me3N+(CH2)2O(CH2)2O(CH2)2CO}-[Pen]D(NMe2)T[Trp(7-Me)][Lys(Me)](Ac)[Pen]Y(X3)[2Nal][Thp]K([AEEA-AEEA-γGlu-Lauroyl])N[3Pal][Sar]-NMe2; disulfide 1-6) | 5.9 nM | 155 A^2
8 | CCCCCCCCCCCC(=O)N[C@@H](CCC(=O)NCCOCCOCC(=O)NCCOCCOCC(=O)NCCOCCOCC(=O)NCCOCCOCC(=O)NCCCC[C@@H](NC(=O)CCOCCOCC[N+](C)(C)C)C(=O)N[C@@H]1C(=O)N[C@@H](CC(=O)N(C)C)C(=O)N[C@@H]([C@@H](C)O)C(=O)N[C@@H](Cc2c[nH]c3c(C)cccc23)C(=O)N[C@@H](CCCCNC(C)=O)C(=O)N[C@H](C(=O)N[C@@H](Cc2ccc(OCCCCC[N+](C)(C)C)cc2)C(=O)N[C@@H](Cc2ccc3ccccc3c2)C(=O)NC2(C(=O)N[C@@H](CCCCN(C)C(C)=O)C(=O)N[C@@H](CC(N)=O)C(=O)N[C@@H](Cc3cccnc3)C(=O)N(C)[C@@H](CCCCNC(=O)COCCOCCNC(=O)COCCOCCNC(=O)COCCOCCNC(=O)COCCOCCNC(=O)CC[C@H](NC(=O)CCCCCCCCCCC)C(=O)O)C(N)=O)CCOCC2)C(C)(C)SSC1(C)C)C(=O)O [compound 404, cPEG3aCO-k(PEG2PEG2PEG2PEG2gEC12)-Pen(3)-N(N(Me)2)-T-7MeW-K(Ac)-Pen(3)-TMAPF-2Nal-THP-K(NMeac)-N-3Pya-NMeK(PEG2PEG2PEG2PEG2gEC12)-CONH2] ({Me3N+(CH2)2O(CH2)2O(CH2)2CO}-[dK]([AEEA-AEEA-AEEA-AEEA-γGlu-Lauroyl])[Pen]D(NMe2)T[Trp(7-Me)]K(Ac)[Pen]Y(X3)[2Nal][Thp][Lys(Me)](Ac)N[3Pal][NMeK]([AEEA-AEEA-AEEA-AEEA-γGlu-Lauroyl])-NH2; disulfide 2-7) | 31 nM | 196 A^2
